Experimental data: ChEMBL document CHEMBL4507290 (2021)

Legend:
[1] = target: Serine/threonine-protein kinase NIM1 (Homo sapiens) (UniProt Q8IY84); conditions: Compound concentration 1000.0 nM
[2] = target: Serine/threonine-protein kinase/endoribonuclease IRE1 (Homo sapiens) (UniProt O75460); conditions: Compound concentration 1000.0 nM
[3] = target: 5-hydroxytryptamine receptor 1B (Homo sapiens) (UniProt P28222); conditions: Compound concentration 10.0 uM
[4] = target: Protein-tyrosine kinase 6 (Homo sapiens) (UniProt Q13882); conditions: Compound concentration 1000.0 nM
Chain of Protein-tyrosine kinase 6 (Homo sapiens) (Q13882 whole entry, looked up): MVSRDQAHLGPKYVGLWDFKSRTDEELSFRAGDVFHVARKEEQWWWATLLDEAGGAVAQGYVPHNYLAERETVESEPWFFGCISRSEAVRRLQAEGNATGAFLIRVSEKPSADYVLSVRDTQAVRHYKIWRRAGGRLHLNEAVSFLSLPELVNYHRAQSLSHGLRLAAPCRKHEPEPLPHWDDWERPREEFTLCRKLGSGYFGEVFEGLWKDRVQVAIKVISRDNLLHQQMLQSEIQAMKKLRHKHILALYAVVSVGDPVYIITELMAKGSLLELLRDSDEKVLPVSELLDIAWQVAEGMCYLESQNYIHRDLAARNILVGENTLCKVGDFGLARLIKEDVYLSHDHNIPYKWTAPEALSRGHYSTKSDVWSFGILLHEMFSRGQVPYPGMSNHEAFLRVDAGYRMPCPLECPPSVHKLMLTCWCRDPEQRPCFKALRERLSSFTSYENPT

[5] = target: Mitogen-activated protein kinase 3 (Homo sapiens) (UniProt P27361); conditions: Compound concentration 1000.0 nM
[6] = target: Ephrin type-A receptor 5 (Homo sapiens) (UniProt P54756); conditions: Compound concentration 1000.0 nM
[7] = target: Ribosomal protein S6 kinase alpha-1 (Homo sapiens) (UniProt Q15418); conditions: Compound concentration 1000.0 nM
[8] = target: Mitogen-activated protein kinase kinase kinase 5 (Homo sapiens) (UniProt Q99683); conditions: Compound concentration 1000.0 nM
[9] = target: Homeodomain-interacting protein kinase 2 (Homo sapiens) (UniProt Q9H2X6); conditions: Compound concentration 1000.0 nM
[10] = target: Macrophage colony-stimulating factor 1 receptor (Homo sapiens) (UniProt P07333); conditions: Compound concentration 1000.0 nM
[11] = target: Serine/threonine-protein kinase TAO3 (Homo sapiens) (UniProt Q9H2K8); conditions: Compound concentration 1000.0 nM
[12] = target: Cyclin-dependent kinase 2 homolog (Plasmodium falciparum (isolate 3D7)) (UniProt P61075); conditions: Compound concentration 1000.0 nM
Chain of Cyclin-dependent kinase 2 homolog (Plasmodium falciparum (isolate 3D7)) (P61075 whole entry): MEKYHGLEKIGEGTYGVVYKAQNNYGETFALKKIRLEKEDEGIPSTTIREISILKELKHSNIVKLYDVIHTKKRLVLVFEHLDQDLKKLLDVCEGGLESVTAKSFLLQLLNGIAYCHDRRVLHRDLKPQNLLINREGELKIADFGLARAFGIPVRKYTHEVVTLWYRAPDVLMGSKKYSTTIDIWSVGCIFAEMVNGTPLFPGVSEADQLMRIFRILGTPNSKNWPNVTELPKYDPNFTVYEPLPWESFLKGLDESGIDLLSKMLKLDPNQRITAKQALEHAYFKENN

[13] = target: Bone morphogenetic protein receptor type-1B (Homo sapiens) (UniProt O00238); conditions: Compound concentration 1000.0 nM
[14] = target: Leucine-rich repeat serine/threonine-protein kinase 2 (Homo sapiens) (UniProt Q5S007); conditions: Compound concentration 1000.0 nM
[15] = target: Platelet-derived growth factor receptor beta (Homo sapiens) (UniProt P09619); conditions: Compound concentration 1000.0 nM
[16] = target: Cyclin-dependent kinase-like 1 (Homo sapiens) (UniProt Q00532); conditions: Compound concentration 1000.0 nM
[17] = target: Aurora kinase C (Homo sapiens) (UniProt Q9UQB9); conditions: Compound concentration 1000.0 nM
Chain of Aurora kinase C (Homo sapiens) (Q9UQB9 whole entry, canonical isoform): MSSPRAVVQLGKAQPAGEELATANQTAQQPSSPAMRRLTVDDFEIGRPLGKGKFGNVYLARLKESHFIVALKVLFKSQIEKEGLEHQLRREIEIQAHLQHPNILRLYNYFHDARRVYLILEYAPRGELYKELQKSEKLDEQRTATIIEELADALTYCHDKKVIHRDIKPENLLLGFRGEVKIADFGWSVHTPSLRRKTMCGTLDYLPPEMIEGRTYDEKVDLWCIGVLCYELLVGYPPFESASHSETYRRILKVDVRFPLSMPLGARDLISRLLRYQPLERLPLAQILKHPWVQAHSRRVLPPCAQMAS

[18] = target: Casein kinase I isoform gamma-1 (Homo sapiens) (UniProt Q9HCP0); conditions: Compound concentration 1000.0 nM
[19] = target: Tyrosine-protein kinase Fes/Fps (Homo sapiens) (UniProt P07332); conditions: Compound concentration 1000.0 nM
Chain of Tyrosine-protein kinase Fes/Fps (Homo sapiens) (P07332 whole entry): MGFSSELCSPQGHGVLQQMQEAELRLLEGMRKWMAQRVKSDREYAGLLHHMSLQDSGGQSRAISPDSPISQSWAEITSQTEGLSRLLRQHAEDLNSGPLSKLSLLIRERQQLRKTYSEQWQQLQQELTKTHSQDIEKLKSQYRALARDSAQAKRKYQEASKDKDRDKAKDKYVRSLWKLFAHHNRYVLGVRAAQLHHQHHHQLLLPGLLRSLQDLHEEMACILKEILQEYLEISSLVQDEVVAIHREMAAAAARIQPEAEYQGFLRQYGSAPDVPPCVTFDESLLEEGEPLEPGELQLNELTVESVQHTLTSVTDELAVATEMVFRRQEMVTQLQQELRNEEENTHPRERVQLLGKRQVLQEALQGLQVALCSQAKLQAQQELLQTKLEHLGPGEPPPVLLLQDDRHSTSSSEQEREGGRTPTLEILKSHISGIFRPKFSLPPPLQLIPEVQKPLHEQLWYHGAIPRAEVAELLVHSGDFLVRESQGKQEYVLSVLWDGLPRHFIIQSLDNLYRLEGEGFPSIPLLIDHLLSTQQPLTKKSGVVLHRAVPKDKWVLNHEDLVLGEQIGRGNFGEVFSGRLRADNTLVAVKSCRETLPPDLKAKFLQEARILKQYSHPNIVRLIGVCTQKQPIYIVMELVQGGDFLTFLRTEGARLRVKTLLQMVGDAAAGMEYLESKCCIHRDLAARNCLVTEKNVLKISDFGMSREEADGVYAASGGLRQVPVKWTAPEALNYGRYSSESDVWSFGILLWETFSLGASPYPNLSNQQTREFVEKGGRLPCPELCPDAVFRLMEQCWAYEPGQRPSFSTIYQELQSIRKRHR

[20] = target: Sodium-dependent noradrenaline transporter (Homo sapiens) (UniProt P23975); conditions: Compound concentration 10.0 uM
[21] = target: Casein kinase I isoform alpha (Homo sapiens) (UniProt P48729); conditions: Compound concentration 1000.0 nM
Chain of Casein kinase I isoform alpha (Homo sapiens) (P48729 2-337 limits assumed): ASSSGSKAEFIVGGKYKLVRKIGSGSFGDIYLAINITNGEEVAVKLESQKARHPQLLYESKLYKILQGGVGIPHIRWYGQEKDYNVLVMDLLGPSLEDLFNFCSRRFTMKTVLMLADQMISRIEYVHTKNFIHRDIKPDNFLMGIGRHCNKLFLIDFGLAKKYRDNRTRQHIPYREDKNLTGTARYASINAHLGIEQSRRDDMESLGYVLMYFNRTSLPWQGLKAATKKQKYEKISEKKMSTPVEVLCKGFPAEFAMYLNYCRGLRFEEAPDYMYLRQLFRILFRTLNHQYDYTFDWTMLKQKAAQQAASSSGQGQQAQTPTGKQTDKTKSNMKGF

[22] = target: Rhodopsin kinase GRK7 (Homo sapiens) (UniProt Q8WTQ7); conditions: Compound concentration 1000.0 nM
[23] = system: Phosphatidylinositol 4,5-bisphosphate 3-kinase catalytic subunit alpha isoform (Homo sapiens), P42336 [Q546K]; conditions: Compound concentration 1000.0 nM
Chain of Phosphatidylinositol 4,5-bisphosphate 3-kinase catalytic subunit alpha isoform (Homo sapiens), P42336 [Q546K] (P42336 whole entry Q546K, canonical isoform): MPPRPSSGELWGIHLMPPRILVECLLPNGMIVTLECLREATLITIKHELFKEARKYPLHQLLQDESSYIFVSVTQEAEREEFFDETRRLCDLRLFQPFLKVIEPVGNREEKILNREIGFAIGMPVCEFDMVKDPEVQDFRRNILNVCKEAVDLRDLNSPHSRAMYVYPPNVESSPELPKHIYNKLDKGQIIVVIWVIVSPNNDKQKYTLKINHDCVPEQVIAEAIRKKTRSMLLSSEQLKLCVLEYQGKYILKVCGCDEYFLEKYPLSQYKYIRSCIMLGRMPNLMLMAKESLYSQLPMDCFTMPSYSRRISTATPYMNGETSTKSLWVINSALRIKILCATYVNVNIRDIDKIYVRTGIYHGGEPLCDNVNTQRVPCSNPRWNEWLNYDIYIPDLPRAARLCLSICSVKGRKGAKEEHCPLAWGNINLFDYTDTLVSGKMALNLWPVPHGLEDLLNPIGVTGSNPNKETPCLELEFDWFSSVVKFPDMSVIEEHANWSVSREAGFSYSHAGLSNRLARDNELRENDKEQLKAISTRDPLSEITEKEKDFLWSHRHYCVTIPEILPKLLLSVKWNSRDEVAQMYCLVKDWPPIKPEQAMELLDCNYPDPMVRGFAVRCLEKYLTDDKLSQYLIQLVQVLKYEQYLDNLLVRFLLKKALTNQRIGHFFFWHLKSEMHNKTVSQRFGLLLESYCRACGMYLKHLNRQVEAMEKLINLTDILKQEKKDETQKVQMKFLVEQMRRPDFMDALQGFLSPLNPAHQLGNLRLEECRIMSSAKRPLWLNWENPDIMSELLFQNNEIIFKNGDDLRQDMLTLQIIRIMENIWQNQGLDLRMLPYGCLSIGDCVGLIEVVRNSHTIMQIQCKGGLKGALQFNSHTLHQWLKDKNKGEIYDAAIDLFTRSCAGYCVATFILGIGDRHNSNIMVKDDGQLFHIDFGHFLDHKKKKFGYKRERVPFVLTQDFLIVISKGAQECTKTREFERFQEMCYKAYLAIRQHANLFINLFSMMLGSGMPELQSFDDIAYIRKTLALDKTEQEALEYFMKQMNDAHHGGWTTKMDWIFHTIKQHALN

[24] = target: Dual specificity protein kinase CLK2 (Homo sapiens) (UniProt P49760); conditions: Compound concentration 1000.0 nM
[25] = target: Casein kinase I isoform epsilon (Homo sapiens) (UniProt P49674); conditions: Compound concentration 1000.0 nM
[26] = target: Wee1-like protein kinase 2 (Homo sapiens) (UniProt P0C1S8); conditions: Compound concentration 1000.0 nM
[27] = target: Tyrosine-protein kinase ABL1 (Homo sapiens) (UniProt P00519); conditions: Compound concentration 1000.0 nM
[28] = target: Homeodomain-interacting protein kinase 1 (Homo sapiens) (UniProt Q86Z02); conditions: Compound concentration 1000.0 nM
[29] = target: Serine/threonine-protein kinase ULK3 (Homo sapiens) (UniProt Q6PHR2); conditions: Compound concentration 1000.0 nM
[30] = target: Serine/threonine-protein kinase Chk1 (Homo sapiens) (UniProt O14757); conditions: Compound concentration 1000.0 nM
[31] = target: Bone morphogenetic protein receptor type-2 (Homo sapiens) (UniProt Q13873); conditions: Compound concentration 1000.0 nM
[32] = system: Mast/stem cell growth factor receptor Kit (Homo sapiens), P10721 [V559D,V654A]; conditions: Compound concentration 1000.0 nM
[33] = target: Tyrosine-protein kinase ITK/TSK (Homo sapiens) (UniProt Q08881); conditions: Compound concentration 1000.0 nM
[34] = target: Mitogen-activated protein kinase kinase kinase 2 (Homo sapiens) (UniProt Q9Y2U5); conditions: Compound concentration 1000.0 nM
Chain of Mitogen-activated protein kinase kinase kinase 2 (Homo sapiens) (Q9Y2U5 whole entry): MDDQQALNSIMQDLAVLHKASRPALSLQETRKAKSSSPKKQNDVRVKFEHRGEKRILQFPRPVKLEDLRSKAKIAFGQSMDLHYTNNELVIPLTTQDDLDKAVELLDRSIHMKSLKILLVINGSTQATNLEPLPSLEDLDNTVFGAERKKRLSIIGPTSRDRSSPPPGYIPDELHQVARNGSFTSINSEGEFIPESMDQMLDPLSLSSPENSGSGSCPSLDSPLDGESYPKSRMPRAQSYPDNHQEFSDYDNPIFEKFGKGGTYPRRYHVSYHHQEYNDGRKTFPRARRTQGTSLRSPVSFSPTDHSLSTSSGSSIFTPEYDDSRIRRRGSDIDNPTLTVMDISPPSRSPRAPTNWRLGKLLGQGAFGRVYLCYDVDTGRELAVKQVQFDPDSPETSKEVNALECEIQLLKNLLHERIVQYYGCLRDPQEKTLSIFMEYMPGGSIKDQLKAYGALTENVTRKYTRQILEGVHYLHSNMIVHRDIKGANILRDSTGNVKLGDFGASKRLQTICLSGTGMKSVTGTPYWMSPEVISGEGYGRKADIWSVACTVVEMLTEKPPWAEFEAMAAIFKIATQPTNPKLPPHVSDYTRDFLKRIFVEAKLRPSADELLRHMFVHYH

[35] = target: NUAK family SNF1-like kinase 2 (Homo sapiens) (UniProt Q9H093); conditions: Compound concentration 1000.0 nM
[36] = target: Cyclin-dependent kinase 17 (Homo sapiens) (UniProt Q00537); conditions: Compound concentration 1000.0 nM
[37] = target: Tyrosine-protein kinase BTK (Homo sapiens) (UniProt Q06187); conditions: Compound concentration 1000.0 nM
Chain of Tyrosine-protein kinase BTK (Homo sapiens) (Q06187 whole entry, the tested form may be a part): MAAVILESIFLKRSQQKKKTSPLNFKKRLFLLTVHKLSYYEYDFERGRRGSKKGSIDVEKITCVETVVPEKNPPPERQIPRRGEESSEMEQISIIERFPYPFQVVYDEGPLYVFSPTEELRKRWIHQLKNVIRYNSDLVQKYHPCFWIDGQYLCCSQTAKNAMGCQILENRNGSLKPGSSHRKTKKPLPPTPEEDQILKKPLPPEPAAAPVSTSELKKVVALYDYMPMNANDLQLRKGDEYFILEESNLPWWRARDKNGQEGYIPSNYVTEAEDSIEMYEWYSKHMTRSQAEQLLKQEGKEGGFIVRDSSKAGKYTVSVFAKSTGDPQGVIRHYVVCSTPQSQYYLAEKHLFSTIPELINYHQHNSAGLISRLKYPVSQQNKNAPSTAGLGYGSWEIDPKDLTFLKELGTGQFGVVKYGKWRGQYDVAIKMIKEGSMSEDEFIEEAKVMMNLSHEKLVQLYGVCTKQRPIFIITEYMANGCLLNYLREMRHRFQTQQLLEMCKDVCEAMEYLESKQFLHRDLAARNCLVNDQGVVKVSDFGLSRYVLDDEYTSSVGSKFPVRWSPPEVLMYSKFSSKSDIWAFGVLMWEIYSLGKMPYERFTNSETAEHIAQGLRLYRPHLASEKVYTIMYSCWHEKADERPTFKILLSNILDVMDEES

[38] = target: LIM domain kinase 1 (Homo sapiens) (UniProt P53667); conditions: Compound concentration 1000.0 nM
[39] = target: Protein kinase C theta type (Homo sapiens) (UniProt Q04759); conditions: Compound concentration 1000.0 nM
[40] = target: Tyrosine-protein kinase Fgr (Homo sapiens) (UniProt P09769); conditions: Compound concentration 1000.0 nM
[41] = target: Mitogen-activated protein kinase kinase kinase 3 (Homo sapiens) (UniProt Q99759); conditions: Compound concentration 1000.0 nM
[42] = target: Phosphatidylinositol 5-phosphate 4-kinase type-2 beta (Homo sapiens) (UniProt P78356); conditions: Compound concentration 1000.0 nM
[43] = target: Fibroblast growth factor receptor 4 (Homo sapiens) (UniProt P22455); conditions: Compound concentration 1000.0 nM
[44] = target: Serine/threonine-protein kinase pim-2 (Homo sapiens) (UniProt Q9P1W9); conditions: Compound concentration 1000.0 nM
[45] = target: AP2-associated protein kinase 1 (Homo sapiens) (UniProt Q2M2I8); conditions: Compound concentration 1000.0 nM

Chain of 5-hydroxytryptamine receptor 1B (Homo sapiens) (P28222 whole entry): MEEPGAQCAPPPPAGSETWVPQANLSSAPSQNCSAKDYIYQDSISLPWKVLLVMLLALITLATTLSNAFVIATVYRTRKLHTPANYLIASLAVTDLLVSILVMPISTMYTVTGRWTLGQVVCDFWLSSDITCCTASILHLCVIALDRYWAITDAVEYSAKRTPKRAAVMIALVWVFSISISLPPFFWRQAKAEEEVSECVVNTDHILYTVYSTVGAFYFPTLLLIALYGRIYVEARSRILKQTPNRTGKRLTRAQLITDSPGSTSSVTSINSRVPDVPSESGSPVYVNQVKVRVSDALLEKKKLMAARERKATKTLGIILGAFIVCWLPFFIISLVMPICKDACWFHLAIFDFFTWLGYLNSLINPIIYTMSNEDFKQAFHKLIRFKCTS

CN([C@@H]1CCc2c(CC(=O)O)c3cc(S(C)(=O)=O)ccc3n2C1)S(=O)(=O)c1ccc(F)cc1
inactive: residual activity [1] 100% | residual activity [2] 100% | inhibition [3] 2.6% | residual activity [4] 92% | residual activity [5] 92% | residual activity [6] 78% | residual activity [7] 100% | residual activity [8] 90% | residual activity [9] 100% | residual activity [10] 100% | residual activity [11] 73% | residual activity [12] 100% | residual activity [13] 100% | residual activity [14] 100% | residual activity [15] 86% | residual activity [16] 100% | residual activity [17] 78% | residual activity [18] 91% | residual activity [19] 92% | inhibition [20] 22.4% | residual activity [21] 100% | residual activity [22] 97% | residual activity [23] 100% | residual activity [24] 100% | residual activity [25] 96% | residual activity [26] 95% | residual activity [27] 95% | residual activity [28] 77% | residual activity [29] 79% | residual activity [30] 100% | residual activity [31] 100% | residual activity [32] 100% | residual activity [33] 100% | residual activity [34] 89% | residual activity [35] 87% | residual activity [36] 100% | residual activity [37] 90% | residual activity [38] 100% | residual activity [39] 78% | residual activity [40] 84% | residual activity [41] 85% | residual activity [42] 59% | residual activity [43] 99% | residual activity [44] 100% | residual activity [45] 100%

CN([C@@H]1CCc2c(CC(=O)O)c3ccccc3n2C1)S(=O)(=O)c1ccc(F)cc1 [MK-7246]
inactive: residual activity [1] 100% | residual activity [2] 94% | inhibition [3] 35.6% | residual activity [4] 100% | residual activity [5] 100% | residual activity [6] 99% | residual activity [7] 100% | residual activity [8] 100% | residual activity [9] 100% | residual activity [10] 100% | residual activity [11] 73% | residual activity [12] 94% | residual activity [13] 100% | residual activity [14] 100% | residual activity [15] 97% | residual activity [16] 100% | residual activity [17] 100% | residual activity [18] 100% | residual activity [19] 79% | inhibition [20] 23.8% | residual activity [21] 80% | residual activity [22] 93% | residual activity [23] 100% | residual activity [24] 94% | residual activity [25] 90% | residual activity [26] 100% | residual activity [27] 100% | residual activity [28] 100% | residual activity [29] 80% | residual activity [30] 100% | residual activity [31] 100% | residual activity [32] 100% | residual activity [33] 96% | residual activity [34] 100% | residual activity [35] 100% | residual activity [36] 100% | residual activity [37] 86% | residual activity [38] 100% | residual activity [39] 83% | residual activity [40] 93% | residual activity [41] 100% | residual activity [42] 80% | residual activity [43] 91% | residual activity [44] 100% | residual activity [45] 100%
